Experiment [1] addresses T1, Serine/threonine-protein kinase haspin (Homo sapiens) (UniProt Q8TF76).
T1 sequence (whole entry): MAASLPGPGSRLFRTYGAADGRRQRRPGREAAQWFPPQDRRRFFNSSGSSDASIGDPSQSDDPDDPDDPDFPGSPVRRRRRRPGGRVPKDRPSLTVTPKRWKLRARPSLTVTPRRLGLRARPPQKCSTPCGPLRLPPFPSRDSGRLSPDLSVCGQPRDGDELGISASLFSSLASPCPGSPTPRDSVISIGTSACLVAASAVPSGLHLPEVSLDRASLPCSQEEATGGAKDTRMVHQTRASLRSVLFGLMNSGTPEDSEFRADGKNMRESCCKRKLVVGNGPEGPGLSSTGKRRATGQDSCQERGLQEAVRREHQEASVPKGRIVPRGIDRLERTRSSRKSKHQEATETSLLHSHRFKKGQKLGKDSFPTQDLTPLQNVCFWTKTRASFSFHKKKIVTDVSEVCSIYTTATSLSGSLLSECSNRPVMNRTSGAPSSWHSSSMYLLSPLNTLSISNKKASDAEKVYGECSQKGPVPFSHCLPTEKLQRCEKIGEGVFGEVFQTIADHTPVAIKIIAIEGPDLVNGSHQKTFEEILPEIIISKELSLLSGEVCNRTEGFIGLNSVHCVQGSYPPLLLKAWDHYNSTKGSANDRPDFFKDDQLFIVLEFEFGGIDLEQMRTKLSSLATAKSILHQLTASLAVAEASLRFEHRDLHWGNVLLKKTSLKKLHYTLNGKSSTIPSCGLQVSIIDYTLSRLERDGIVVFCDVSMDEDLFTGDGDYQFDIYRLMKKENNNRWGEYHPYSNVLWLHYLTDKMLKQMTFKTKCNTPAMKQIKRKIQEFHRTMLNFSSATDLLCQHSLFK
The experiment can be described thus: Selectivity interaction (Kinase panel (DSF assay)) EUB0001558a GSG2. A general note: In DSF a fluorescence change marks the thermal transition of the protein.

Experiment [2] concerns the target Serine/threonine-protein kinase PAK 4 (Homo sapiens, UniProt O96013). The experiment can be described thus: Selectivity interaction (KinomeScan (DiscoverX)) EUB0000092b PAK4. The note with it: at 10 µM.
Experiment [3] addresses Ribosomal protein S6 kinase alpha-4 (Homo sapiens) (UniProt O75676). The experiment can be described thus: Selectivity interaction (KinomeScan (DiscoverX)) EUB0001049a RPS6KA4. The note with it: at 1 µM.
The target in experiment [4] is Casein kinase I isoform gamma-2 (Homo sapiens) (UniProt P78368). The experiment can be described thus: Selectivity interaction (KinomeScan (DiscoverX)) EUB0000655a CSNK1G2. The note with it: at 10 µM.
The target of experiment [5] is T2, Mitogen-activated protein kinase kinase kinase 13 (Homo sapiens) (UniProt O43283).
T2 sequence (whole entry): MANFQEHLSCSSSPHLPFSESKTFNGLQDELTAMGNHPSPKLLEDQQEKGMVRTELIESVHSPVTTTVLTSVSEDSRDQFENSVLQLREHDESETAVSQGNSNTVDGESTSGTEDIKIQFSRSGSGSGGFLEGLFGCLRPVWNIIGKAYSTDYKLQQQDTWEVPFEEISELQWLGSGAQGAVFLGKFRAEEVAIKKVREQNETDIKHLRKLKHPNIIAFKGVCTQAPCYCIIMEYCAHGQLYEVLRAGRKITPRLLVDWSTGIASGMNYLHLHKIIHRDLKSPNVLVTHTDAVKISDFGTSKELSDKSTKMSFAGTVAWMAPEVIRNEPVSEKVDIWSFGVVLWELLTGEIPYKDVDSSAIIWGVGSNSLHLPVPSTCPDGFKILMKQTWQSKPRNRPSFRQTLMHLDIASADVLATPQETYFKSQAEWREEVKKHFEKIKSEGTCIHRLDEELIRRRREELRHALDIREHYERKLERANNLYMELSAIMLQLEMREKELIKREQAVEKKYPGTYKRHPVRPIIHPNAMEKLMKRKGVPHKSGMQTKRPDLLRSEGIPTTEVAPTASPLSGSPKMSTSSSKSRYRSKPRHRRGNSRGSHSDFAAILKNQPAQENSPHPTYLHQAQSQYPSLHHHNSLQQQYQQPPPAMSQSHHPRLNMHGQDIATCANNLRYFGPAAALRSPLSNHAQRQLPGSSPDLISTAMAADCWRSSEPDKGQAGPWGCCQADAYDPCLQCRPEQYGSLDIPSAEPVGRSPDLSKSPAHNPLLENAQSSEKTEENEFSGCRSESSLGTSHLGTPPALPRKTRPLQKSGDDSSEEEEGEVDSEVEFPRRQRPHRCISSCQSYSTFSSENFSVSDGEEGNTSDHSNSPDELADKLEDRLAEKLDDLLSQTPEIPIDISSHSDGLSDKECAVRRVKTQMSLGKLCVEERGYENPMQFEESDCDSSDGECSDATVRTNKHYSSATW
The experiment can be described thus: Selectivity interaction (KinomeScan (DiscoverX)) EUB0000666a MAP3K13. Particulars: at 10 µM.

The target in experiment [6] is Serine/threonine-protein kinase PLK1 (Homo sapiens, UniProt P53350). The experiment can be described thus: Selectivity interaction (ActivX KiNativ screen (kinase selectivity in THP-1 cell lysates)) EUB0000639a PLK1. Type of experiment: subcellular. The note with it: lysate.
For experiment [7], the target named is Calcium/calmodulin-dependent protein kinase type 1D (Homo sapiens) (UniProt Q8IU85). The experiment can be described thus: Selectivity interaction (KinomeScan (DiscoverX)) EUB0000229b CAMK1D. Particulars: at 10 µM.
Experiment [8] addresses Serine/threonine-protein kinase Nek7 (Homo sapiens) (UniProt Q8TDX7). The experiment can be described thus: Selectivity interaction (KinomeScan (DiscoverX)) EUB0000595a NEK7. The note with it: at 10 µM.
Experiment [9] deals with Tyrosine-protein kinase Fyn (Homo sapiens) (UniProt P06241). The experiment can be described thus: Selectivity interaction (ActivX KiNativ screen (ex vivo kinase selectivity in human PBMCs)) EUB0001619a FYN. Type of experiment: cell-based. Particulars: PBMC, at 1 µM.
The target in experiment [10] is Tyrosine-protein kinase CSK (Homo sapiens) (UniProt P41240). The experiment can be described thus: Selectivity interaction (ActivX KiNativ screen (ex vivo kinase selectivity in human PBMCs)) EUB0001619a CSK. Type of experiment: cell-based. Particulars: PBMC, at 1 µM.

The structures appear in SMILES notation.

Chain of Serine/threonine-protein kinase PLK1 (P53350 whole entry): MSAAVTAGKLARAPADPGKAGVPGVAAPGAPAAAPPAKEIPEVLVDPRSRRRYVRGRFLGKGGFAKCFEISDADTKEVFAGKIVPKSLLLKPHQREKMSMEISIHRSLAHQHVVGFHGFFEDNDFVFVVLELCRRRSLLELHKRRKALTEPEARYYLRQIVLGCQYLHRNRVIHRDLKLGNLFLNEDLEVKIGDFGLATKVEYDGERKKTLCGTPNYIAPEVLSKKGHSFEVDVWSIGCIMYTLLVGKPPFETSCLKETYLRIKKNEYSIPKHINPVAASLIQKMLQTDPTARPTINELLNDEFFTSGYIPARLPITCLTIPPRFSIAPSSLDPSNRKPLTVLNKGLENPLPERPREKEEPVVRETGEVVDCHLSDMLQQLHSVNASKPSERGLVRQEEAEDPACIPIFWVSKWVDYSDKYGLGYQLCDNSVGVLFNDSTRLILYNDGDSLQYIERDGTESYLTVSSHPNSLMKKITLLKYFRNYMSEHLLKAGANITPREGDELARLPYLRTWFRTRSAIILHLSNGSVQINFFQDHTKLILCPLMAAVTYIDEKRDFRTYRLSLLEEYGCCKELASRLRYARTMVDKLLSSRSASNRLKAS
Chain of Ribosomal protein S6 kinase alpha-4 (Homo sapiens) (O75676 whole entry, looked up, canonical isoform): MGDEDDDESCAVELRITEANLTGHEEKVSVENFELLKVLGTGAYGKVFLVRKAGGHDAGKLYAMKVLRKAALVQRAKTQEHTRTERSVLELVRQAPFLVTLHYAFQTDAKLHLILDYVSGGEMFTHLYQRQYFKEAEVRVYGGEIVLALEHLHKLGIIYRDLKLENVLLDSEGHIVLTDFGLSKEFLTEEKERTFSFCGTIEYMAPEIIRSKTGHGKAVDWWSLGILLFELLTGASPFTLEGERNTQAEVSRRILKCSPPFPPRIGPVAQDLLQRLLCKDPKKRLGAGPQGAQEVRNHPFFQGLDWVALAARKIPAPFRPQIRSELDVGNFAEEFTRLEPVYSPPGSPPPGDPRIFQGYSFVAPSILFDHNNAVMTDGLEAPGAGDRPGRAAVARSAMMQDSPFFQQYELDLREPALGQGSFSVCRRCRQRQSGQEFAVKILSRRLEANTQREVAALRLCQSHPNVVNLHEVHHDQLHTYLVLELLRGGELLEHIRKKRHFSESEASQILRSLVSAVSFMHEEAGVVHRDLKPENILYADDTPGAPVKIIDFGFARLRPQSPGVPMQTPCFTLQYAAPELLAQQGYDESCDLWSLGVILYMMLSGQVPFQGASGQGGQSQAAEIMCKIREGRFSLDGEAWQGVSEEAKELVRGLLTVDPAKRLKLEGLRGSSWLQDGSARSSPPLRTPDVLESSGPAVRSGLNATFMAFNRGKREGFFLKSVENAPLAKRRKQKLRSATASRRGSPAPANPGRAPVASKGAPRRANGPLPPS
Chain of Calcium/calmodulin-dependent protein kinase type 1D (Homo sapiens) (Q8IU85 whole entry, looked up): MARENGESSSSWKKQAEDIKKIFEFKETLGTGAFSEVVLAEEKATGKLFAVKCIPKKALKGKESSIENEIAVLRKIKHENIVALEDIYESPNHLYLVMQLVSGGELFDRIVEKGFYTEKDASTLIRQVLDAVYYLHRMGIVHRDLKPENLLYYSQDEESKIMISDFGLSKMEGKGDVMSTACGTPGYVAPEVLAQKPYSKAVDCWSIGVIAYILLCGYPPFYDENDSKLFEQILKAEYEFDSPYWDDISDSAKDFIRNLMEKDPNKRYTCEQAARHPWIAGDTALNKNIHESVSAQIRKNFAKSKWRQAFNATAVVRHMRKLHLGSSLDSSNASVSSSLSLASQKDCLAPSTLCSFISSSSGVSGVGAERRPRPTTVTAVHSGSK
Chain of Casein kinase I isoform gamma-2 (Homo sapiens) (P78368 whole entry, looked up, canonical isoform): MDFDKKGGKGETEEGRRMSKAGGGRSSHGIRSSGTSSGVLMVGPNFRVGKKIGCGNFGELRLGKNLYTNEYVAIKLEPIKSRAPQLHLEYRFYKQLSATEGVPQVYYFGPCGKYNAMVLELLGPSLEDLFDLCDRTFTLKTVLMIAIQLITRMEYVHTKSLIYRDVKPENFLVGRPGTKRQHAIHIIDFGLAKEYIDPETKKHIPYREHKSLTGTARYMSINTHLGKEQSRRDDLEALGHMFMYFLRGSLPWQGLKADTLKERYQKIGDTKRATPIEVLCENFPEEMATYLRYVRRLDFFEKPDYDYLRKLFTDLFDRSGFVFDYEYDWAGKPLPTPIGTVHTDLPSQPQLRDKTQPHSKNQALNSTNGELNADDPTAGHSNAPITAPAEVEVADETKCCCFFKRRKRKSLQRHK
Chain of Serine/threonine-protein kinase Nek7 (Homo sapiens) (Q8TDX7 whole entry, looked up): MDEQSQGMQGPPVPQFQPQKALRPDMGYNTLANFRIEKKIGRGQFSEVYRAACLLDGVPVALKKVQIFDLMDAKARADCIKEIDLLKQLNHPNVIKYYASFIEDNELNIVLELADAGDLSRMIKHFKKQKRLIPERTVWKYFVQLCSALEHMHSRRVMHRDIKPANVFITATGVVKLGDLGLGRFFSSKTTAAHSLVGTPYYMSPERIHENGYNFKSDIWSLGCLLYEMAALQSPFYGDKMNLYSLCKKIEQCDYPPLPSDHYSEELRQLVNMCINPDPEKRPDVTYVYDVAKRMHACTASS
Chain of Serine/threonine-protein kinase PAK 4 (O96013 whole entry, looked up): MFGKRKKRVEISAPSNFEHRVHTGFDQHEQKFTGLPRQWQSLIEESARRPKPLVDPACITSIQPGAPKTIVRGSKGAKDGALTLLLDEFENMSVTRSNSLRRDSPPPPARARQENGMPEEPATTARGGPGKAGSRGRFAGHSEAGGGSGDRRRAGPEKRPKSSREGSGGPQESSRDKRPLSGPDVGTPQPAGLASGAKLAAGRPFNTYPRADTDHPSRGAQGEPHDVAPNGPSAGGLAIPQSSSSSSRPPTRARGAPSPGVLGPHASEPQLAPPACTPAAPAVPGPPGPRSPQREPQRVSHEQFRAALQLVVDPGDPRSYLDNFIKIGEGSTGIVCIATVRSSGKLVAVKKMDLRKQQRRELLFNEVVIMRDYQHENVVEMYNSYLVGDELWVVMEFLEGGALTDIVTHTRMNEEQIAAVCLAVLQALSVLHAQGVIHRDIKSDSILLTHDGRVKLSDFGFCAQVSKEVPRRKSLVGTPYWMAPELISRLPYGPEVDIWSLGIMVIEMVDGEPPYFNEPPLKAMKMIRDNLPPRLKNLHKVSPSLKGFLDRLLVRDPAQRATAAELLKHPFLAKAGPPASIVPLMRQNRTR
Chain of Tyrosine-protein kinase Fyn (Homo sapiens) (P06241 2-537 limits assumed): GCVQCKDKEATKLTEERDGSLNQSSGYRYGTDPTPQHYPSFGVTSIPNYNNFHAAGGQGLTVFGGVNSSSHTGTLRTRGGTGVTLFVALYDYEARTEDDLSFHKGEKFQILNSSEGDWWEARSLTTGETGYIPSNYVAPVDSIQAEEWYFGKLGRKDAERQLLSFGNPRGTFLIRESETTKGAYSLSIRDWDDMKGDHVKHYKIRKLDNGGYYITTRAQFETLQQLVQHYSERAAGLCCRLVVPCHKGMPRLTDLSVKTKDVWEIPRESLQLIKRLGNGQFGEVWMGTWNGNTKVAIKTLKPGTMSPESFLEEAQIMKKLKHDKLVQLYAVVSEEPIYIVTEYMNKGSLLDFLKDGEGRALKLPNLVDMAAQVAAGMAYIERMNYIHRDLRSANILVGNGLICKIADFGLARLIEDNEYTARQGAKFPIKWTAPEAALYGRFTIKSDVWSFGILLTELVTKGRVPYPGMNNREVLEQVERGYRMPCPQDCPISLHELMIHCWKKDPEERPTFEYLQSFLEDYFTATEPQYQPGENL
Chain of Tyrosine-protein kinase CSK (Homo sapiens) (P41240 2-450 limits assumed): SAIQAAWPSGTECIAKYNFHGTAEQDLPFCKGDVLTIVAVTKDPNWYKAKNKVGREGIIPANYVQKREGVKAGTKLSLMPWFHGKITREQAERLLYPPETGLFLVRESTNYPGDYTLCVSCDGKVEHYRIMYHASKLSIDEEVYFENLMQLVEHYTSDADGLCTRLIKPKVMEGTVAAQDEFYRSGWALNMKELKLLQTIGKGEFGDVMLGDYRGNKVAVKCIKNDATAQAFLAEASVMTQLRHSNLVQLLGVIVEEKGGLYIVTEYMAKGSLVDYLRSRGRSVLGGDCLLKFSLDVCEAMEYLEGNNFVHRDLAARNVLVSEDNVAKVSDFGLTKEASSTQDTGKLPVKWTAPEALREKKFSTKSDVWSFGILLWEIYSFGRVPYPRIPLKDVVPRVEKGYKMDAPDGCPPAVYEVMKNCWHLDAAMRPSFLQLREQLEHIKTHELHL

`CC(C)(O)[C@H](F)CN1Cc2cc(NC(=O)c3cnn4cccnc34)c(N3CCOCC3)cc2C1=O` showed a dTM in experiment [1] of 0.8 K. In the case of `CCC(=O)N1CCN(c2ccc(-n3c(=O)ccc4cnc5ccc(-c6cnc7ccccc7c6)cc5c43)cc2C(F)(F)F)CC1`, the % of control in experiment [2] is 100%. With `COc1cc(Nc2nc(C)cc(-c3cnn4nc(OC)ccc34)n2)cc(C(F)(F)F)c1`, the % of control in experiment [3] is 96%. `CN(C)CCOc1ccc(-c2nc(-c3ccncc3)c(-c3ccc4c(c3)CC/C4=N\O)[nH]2)cc1`: in experiment [4], the % of control turned out to be 72%. Compound `O=C(NOC[C@H](O)CO)c1ccc(F)c(F)c1Nc1ccc(I)cc1F` came in with a % of control in [5] of 86%. For `CC[C@@H]1[C@H](F)C(=O)N[C@@H]1COc1nccc2cc(C(N)=O)c(OC)cc12` [ZIMLOVISERTIB], the % of inhibition in experiment [6] (at 0.01 µM) was 7.9%; in [6] (at 0.04 µM), 2%; in [6] (at 0.2 µM), -17.6%; in experiment [6] (at 1 µM), -0.9%; in experiment [6] (at 5 µM), -0.9%. As to `COc1cc(N(C)c2ccnc3ccc(C(F)(F)F)cc23)cc(OC)c1OC`, the % binding in experiment [7] amounted to 59%. `COCC(=O)NC/C=C/c1ccc2ncnc(Nc3ccc(Oc4ccc(C)nc4)c(C)c3)c2c1` [CP-724714] yielded a % of control in experiment [8] of 73%. Take `N#Cc1cccc(-c2c[nH]c3ncnc(N4CCOCC4)c23)c1`: the % of inhibition was -9% in experiment [9] and -45% in experiment [10].
